Assay results taken from patent US12103915B2, “TEAD inhibitors and methods of uses thereof” (Insilico Medicine IP Limited, priority 2022, dated 2024).

Assays:
Format in all cases: binding
[1] = molecular target: TEAD1 (Homo sapiens, UniProt P28347); assay: Thermal shift assay TEAD1
Procedure: (§1) Example B: Thermal Shift Assay
(§2) 1) Prepare a fresh dilution of Protein Thermal Shift™ Dye (Applied Biosystems, 1000×) to 8× by […].
(§3) 2) To ensure the same DMSO concentration, the compounds were diluted as follows: Prepare 10 mM stock solution of compounds;
(§4) The final DMSO concentration was 0.1%
(§5) 10 μM: Diluting stock solution to 100 μM by using PBS.
(§6) 1 μM: Diluting stock solution to 1 mM by using DMSO, then dilute to 10 μM by using PBS.
(§7) TEAD1: the stock concentration was 2.9 mg/ml; the final concentration was 0.2 mg/ml. TEAD2: the stock concentration was 1.8 mg/ml; the final concentration was 0.08 mg/ml.
(§8) 4) Place the appropriate reaction plate or tubes on ice, then prepare the protein melt reactions:
(§9) 5) Pipet each reaction up and down 10 times to mix well.
(§10) 6) Seal the plate with MicroAmp™ Optical Adhesive Film, spin it at 1000 rpm for 1 minute.
(§11) 7) Set up and run on the qPCR instrument.
(§12) Using thermal Shift™ Software v1.3 to analysis.

[2] = molecular target: TEAD2 (Homo sapiens, UniProt Q15562); assay: Thermal shift assay TEAD2
Chain of TEAD2 (Q15562 whole entry, species assumed): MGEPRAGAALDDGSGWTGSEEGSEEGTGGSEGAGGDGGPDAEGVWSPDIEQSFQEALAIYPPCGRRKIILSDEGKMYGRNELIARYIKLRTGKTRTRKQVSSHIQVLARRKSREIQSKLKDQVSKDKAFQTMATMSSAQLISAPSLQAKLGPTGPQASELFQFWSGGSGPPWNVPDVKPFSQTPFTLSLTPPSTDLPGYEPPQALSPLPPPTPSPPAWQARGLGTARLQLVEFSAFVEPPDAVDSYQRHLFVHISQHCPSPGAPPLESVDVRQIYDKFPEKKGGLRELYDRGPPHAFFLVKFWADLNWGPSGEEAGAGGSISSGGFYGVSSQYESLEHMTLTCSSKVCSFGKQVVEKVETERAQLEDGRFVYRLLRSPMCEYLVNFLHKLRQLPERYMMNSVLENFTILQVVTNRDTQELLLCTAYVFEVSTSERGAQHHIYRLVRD
Procedure: as §1, §2, §3, §4, §5, §6, §7, §8, §9, §10, §11, §12

[3] = molecular target: TEAD3 (Homo sapiens, UniProt Q99594); assay: Thermal shift assay TEAD3
Chain of TEAD3 (Q99594 whole entry, species assumed): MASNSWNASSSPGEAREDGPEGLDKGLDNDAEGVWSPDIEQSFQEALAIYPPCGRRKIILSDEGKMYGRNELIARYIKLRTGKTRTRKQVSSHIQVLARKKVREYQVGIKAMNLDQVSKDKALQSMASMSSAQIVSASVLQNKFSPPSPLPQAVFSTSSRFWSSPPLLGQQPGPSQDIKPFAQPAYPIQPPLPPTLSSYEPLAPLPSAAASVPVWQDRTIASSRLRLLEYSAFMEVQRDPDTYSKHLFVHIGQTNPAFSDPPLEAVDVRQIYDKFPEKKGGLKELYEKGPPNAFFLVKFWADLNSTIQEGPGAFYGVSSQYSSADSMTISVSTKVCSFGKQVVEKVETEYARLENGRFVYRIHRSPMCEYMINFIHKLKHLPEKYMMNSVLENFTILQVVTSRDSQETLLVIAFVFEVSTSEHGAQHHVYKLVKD
Procedure: as §1, §2, §3, §4, §5, §6
TEAD3: the stock concentration was 2.4 mg/ml; the final concentration was 0.1 mg/ml.
as §8, §9, §10, §11, §12

[4] = molecular target: TEAD4 (Homo sapiens, UniProt Q15561); assay: Thermal shift assay TEAD4
Chain of TEAD4 (Q15561 whole entry, species assumed): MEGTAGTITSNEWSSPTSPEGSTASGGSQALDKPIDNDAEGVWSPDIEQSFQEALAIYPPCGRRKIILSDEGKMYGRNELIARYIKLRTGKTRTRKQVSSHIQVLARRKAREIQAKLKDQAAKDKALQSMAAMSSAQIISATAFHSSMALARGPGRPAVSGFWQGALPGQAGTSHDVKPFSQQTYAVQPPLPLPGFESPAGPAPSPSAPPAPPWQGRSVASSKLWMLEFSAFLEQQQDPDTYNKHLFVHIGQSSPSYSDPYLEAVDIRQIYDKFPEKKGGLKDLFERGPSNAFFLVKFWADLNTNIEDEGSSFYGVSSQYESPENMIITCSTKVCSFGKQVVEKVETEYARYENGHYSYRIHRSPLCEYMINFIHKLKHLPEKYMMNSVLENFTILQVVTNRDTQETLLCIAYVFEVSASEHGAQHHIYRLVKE
Procedure: as §1, §2, §3, §4, §5, §6
TEAD4: the stock concentration was 2.3 mg/ml; the final concentration was 0.1 mg/ml.
as §8, §9, §10, §11, §12

Chain of TEAD1 (P28347 whole entry, species assumed): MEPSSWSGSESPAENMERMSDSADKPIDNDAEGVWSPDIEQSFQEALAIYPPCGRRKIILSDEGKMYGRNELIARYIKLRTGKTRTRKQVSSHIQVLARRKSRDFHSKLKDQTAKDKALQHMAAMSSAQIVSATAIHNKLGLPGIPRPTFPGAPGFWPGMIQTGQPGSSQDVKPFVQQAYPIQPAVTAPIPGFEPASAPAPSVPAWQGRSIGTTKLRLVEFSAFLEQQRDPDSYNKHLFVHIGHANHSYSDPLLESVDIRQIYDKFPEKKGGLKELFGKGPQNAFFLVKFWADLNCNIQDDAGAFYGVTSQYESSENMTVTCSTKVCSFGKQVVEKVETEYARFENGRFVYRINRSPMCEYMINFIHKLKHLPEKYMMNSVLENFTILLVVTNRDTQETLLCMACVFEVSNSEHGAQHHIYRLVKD

Structure (SMILES) | TEAD1 ΔTm [1] [°C] | TEAD2 ΔTm [2] [°C] | TEAD3 ΔTm [3] [°C] | TEAD4 ΔTm [4] [°C]
CNS(=O)(=O)[C@@H]1CC1c1cc(-c2ccc(C(F)(F)F)cc2)cc2cn(C)nc12 (mixture of isomers) [Example 50] | 4.2 | 2.5 | 0.7 | 5.7
O=C(O)[C@@H]1CC1c1cc(Oc2ccc(C(F)(F)F)cc2)cn2ccnc12 (mixture of isomers) [Example 83] | 2.7 | 8.0 | 1.4 | 3.6
CNC(=O)[C@@H]1CC1c1cc(Oc2ccc(C(F)(F)F)cc2)cn2ccnc12 (mixture of isomers) [Example 84] | 1.0 | 6.5 | 1.2 | 3.1
Cn1cc2cc(Oc3ccc(C(F)(F)F)cc3)cc([C@@H]3C[C@H]3C(=O)O)c2n1 (single isomer, unassigned) [Example 16a] | 11.3 | 13.7 | 2 | 11.4
Cn1cc2cc(Oc3ccc(C(F)(F)F)cc3)cc([C@H]3C[C@@H]3C(=O)O)c2n1 (single isomer, unassigned) [Example 16b] | 12.1 | 14.9 | 15 | 12.5
[2H]C([2H])([2H])n1cc2cc(Oc3ccc(C(F)(F)F)cc3)cc([C@@H]3C[C@H]3C(=O)NC)c2n1 (single isomer, unassigned) [Example 76a] | 5.4 | 10.3 | 0.6 | 4.7
[2H]C([2H])([2H])n1cc2cc(Oc3ccc(C(F)(F)F)cc3)cc([C@H]3C[C@@H]3C(=O)NC)c2n1 (single isomer, unassigned) [Example 76b] | 11.5 | 15.4 | 10.9 | 12.6
Cn1cc2cc(O[C@H]3CC[C@@H](C(F)(F)F)CC3)cc([C@@H]3C[C@H]3C(=O)N3CC(O)C3)c2n1 (single isomer, unassigned) [Example 87a] | 4.9 | 10.1 | 1.0 | 6.8
Cn1cc2cc(O[C@H]3CC[C@@H](C(F)(F)F)CC3)cc([C@H]3C[C@@H]3C(=O)N3CC(O)C3)c2n1 (single isomer, unassigned) [Example 87b] | −0.4 | 2.6 | 0.0 | 0.3
Cn1cc2cc(Oc3ccc(C(F)(F)F)cn3)cc([C@@H]3C[C@H]3C(=O)N3CC(O)C3)c2n1 (single isomer, unassigned) [Example 88a] | −0.3 | 1.5 | 0.1 | 0.1
Cn1cc2cc(Oc3ccc(C(F)F)cc3)cc([C@@H]3C[C@H]3C(=O)N3CC(O)C3)c2n1 (single isomer, unassigned) [Example 89a] | 0.0 | 3.3 | 0.2 | −0.2
Cn1cc2cc(Oc3ccc(F)c(F)c3)cc([C@@H]3C[C@H]3C(=O)N3CC(O)C3)c2n1 (single isomer, unassigned) [Example 90a] | −0.2 | 2.6 | 0.2 | 0.6
Cn1cc2cc(Oc3ccc(C(F)(F)F)cc3)cc(C3C[C@H]3C(=O)N3CC4CC3[C@H](O)[C@H]4O)c2n1 (single isomer, unassigned) [Example 106] | 6.4 | 9.9 | 2.2 | 8.5
Cn1cc2cc(Oc3ccc(C(F)(F)F)cc3)cc(C3C[C@H]3C(=O)NC[C@H]3C[C@@H](O)[C@@H](O)C3O)c2n1 (single isomer, unassigned) [Example 107] | 5.0 | 4.9 | 1.1 | 6.1
Cn1cc2nc(Oc3ccc(C(F)(F)F)cc3)nc([C@H]3C[C@@H]3C(=O)N3CC(O)C3)c2n1 (single isomer, unassigned) [Example 109b] | 1.8 | 2.2 | 0.9 | 3.4
Cn1cc2cc(Oc3ccc(C(F)(F)F)cc3)cc(C3C[C@H]3C(=O)N3CCS(=O)(=O)CC3)c2n1 (single isomer, unassigned) [Example 110] | 4.1 | 5.2 | 1.0 | 4.1

Structure (SMILES) | TEAD1 ΔTm [1] [°C] | TEAD2 ΔTm [2] [°C] | TEAD3 ΔTm [3] [°C] | TEAD4 ΔTm [4] [°C]
Cn1cc2cc(Oc3ccc(C(F)(F)F)cc3)cc(C3C[C@H]3C(=O)N3CCP(C)(=O)CC3)c2n1 (single isomer, unassigned) [Example 111] | 3.0 | 3.7 | 0.7 | 3.2
CO[C@H]1CN(C(=O)[C@@H]2C[C@H]2c2cc(Oc3ccc(C(F)(F)F)cc3)cc3cn(C)nc23)C[C@@H]1O (single isomer, unassigned) [Example 112a] | 7.2 | 9.5 | 2.0 | 8.6
Cn1cc2cc(Oc3ccc(C(F)(F)F)cc3)cc(C3C[C@H]3C(=O)N3CC(C(=O)O)C3)c2n1 (single isomer, unassigned) [Example 113] | 4.1 | 5.7 | 1.5 | 4.2
Cn1cc2cc(Oc3ccc(C(F)(F)F)cc3)cc(C3C[C@H]3C(=O)N3CCOC4(COC4)C3)c2n1 (single isomer, unassigned) [Example 114] | 4.6 | 7.1 | 1.5 | 7.1
CN1CCC2(CN(C(=O)[C@@H]3CC3c3cc(Oc4ccc(C(F)(F)F)cc4)cc4cn(C)nc34)C2)C1=O (single isomer, unassigned) [Example 115] | 4.2 | 3.5 | 1.3 | 3.5
Cn1cc2cc(Oc3ccc(C(F)(F)F)cc3)cc(C3C[C@H]3C(=O)N3C4COCC3CC(O)C4)c2n1 (single isomer, unassigned) [Example 116a] | 4.6 | 6.1 | 1.8 | 6.1
Cn1cc2cc(Oc3ccc(C(F)(F)F)cc3)cc(C3C[C@H]3C(=O)N3C4COCC3CC(O)C4)c2n1 (single isomer, unassigned) [Example 116b] | 5.5 | 5.3 | 2.2 | 7.1
Cn1cc2nc(Oc3ccc(C(F)(F)F)cc3)cc([C@@H]3C[C@H]3C(=O)N3C4COCC3C4)c2n1 (single isomer, unassigned) [Example 118] | 4.6 | 6.2 | 1.6 | 6.1
Cn1cc2nc(Oc3ccc(C(F)(F)F)cc3)cc([C@@H]3C[C@H]3C(=O)N3C[C@H]4C[C@@H]3CO4)c2n1 (single isomer, unassigned) [Example 119] | 4.2 | 6.1 | 1.6 | 4.7
Cn1cc2nc(Oc3ccc(C(F)(F)F)cc3)cc([C@@H]3C[C@H]3C(=O)N3C[C@@H]4C[C@H]3CO4)c2n1 (single isomer, unassigned) [Example 120] | 4.1 | 6.5 | 1.2 | 4.5
Cn1cc2cc(Oc3ccc(C(F)(F)F)cc3)cc([C@@H]3C[C@H]3C(=O)N3CC4CC3CN4)c2n1 (single isomer, unassigned) [Example 122] | 5.9 | 6.5 | 1.8 | 4.9
Cn1cc2cc(Oc3cc(F)ccc3C(F)(F)F)cc([C@@H]3C[C@H]3C(=O)N3CC(O)C3)c2n1 (single isomer, unassigned) [Example 133] | 1.1 | 8.5 | 0.3 | 4.9
Cn1cc2cc(Oc3ccc(C(F)(F)F)cc3)cc([C@@H]3C[C@H]3C(=O)N3CCC34CC(O)C4)c2n1 (single isomer, unassigned) [Example 136] | 7.1 | 12.4 | 1.7 | 10.3
Cn1cc2cc(Oc3cc(F)c(F)c(F)c3)cc([C@@H]3C[C@H]3C(=O)N3C[C@@H]4C[C@H]3C[C@@H]4O)c2n1 (single isomer, unassigned) [Example 138] | 4.2 | 6.8 | 2.3 | 6.4
CNS(=O)(=O)CCc1cc(N(C)c2ccc(C(F)(F)F)cc2)cc2cn(C)nc12 [Example 49] | 3.2 | 2.6 | 0.1 | 5.1
